Assay results reported in ChEMBL document CHEMBL5331067, “Disubstituted pyrimidine-5-carboxamide derivatives as novel HIV-1 NNRTIs: Crystallographic overlay-based molecular design, synthesis, and biological evaluation” (Eur J Med Chem, 2023).

How the values were obtained:
[1] = test system: Human immunodeficiency virus 1; assay: Antiviral activity against NNRTI-resistant HIV-1 harboring E138K mutant infected in human MT4 cells assessed as virus-induced cytopathicity incubated for 5 days by MTT assay; assay type: functional, organism-based; settings: Human immunodeficiency virus 1, MT4, 120 h
[2] = Selectivity index, ratio of CC50 for cytotoxicity against human MT4 cells assessed as reduction in cell viability to EC50 for antiviral activity against NNRTI-resistant HIV-1 harboring Y181C mutant infected in human MT4 cells; assay type: toxicity, cell-based; settings: read-out: Ratio CC50/EC50
[3] = test system: Human immunodeficiency virus 1; assay: Antiviral activity against NNRTI-resistant HIV-1 harboring Y188L mutant infected in human MT4 cells assessed as virus-induced cytopathicity incubated for 5 days by MTT assay; assay type: functional, organism-based; settings: Human immunodeficiency virus 1, MT4, 120 h
[4] = biological target: Human immunodeficiency virus type 1 reverse transcriptase (Human immunodeficiency virus 1, UniProt Q72547); assay: Inhibition of wild type HIV-1 reverse transcriptase assessed as reduction of biotin-dUTP incorporation into […] using ABTS as substrate incubated for 1 hrs by ELISA analysis
[5] = Selectivity index, ratio of CC50 for cytotoxicity against human MT4 cells assessed as reduction in cell viability to EC50 for antiviral activity against NNRTI-resistant HIV-1 harboring Y188L mutant infected in human MT4 cells; assay type: toxicity, cell-based; settings: read-out: Ratio CC50/EC50
[6] = test system: Human immunodeficiency virus 1; assay: Antiviral activity against NNRTI-resistant HIV-1 harboring Y181C mutant infected in human MT4 cells assessed as virus-induced cytopathicity incubated for 5 days by MTT assay; assay type: functional, organism-based; settings: Human immunodeficiency virus 1, MT4, 120 h
[7] = (§1) Fold resistance, ratio of EC50 for antiviral activity against NNRTI-resistant HIV-1 harboring Y181C mutant infected in human MT4 cells assessed as virus-induced cytopathicity to EC50 for antiviral activity against HIV-1 IIIB infected in human MT4 cells assessed as reduction in virus induced cytopathic effect; assay type: functional
[8] = as §1, with “Y188L” for “Y181C”; assay type: functional
[9] = Selectivity index, ratio of CC50 for cytotoxicity against human MT4 cells assessed as reduction in cell viability to EC50 for antiviral activity against NNRTI-resistant HIV-1 harboring K103N mutant infected in human MT4 cells; assay type: toxicity, cell-based; settings: read-out: Ratio CC50/EC50
[10] = test system: Human immunodeficiency virus 1; assay: Antiviral activity against HIV-1 RES056 infected in human MT4 cells assessed as reduction in virus induced cytopathic effect incubated for 5 days by MTT assay; assay type: functional, organism-based; settings: Human immunodeficiency virus 1, RES056, MT4, 120 h
[11] = Selectivity index, ratio of CC50 for cytotoxicity against human MT4 cells assessed as reduction in cell viability to EC50 for antiviral activity against NNRTI-resistant HIV-1 harboring E138K mutant infected in human MT4 cells; assay type: toxicity, cell-based; settings: read-out: Ratio CC50/EC50
[12] = as §1, with “L100I” for “Y181C”; assay type: functional
[13] = test system: Human immunodeficiency virus 1; assay: Antiviral activity against NNRTI-resistant HIV-1 harboring K103N mutant infected in human MT4 cells assessed as virus-induced cytopathicity incubated for 5 days by MTT assay; assay type: functional, organism-based; settings: Human immunodeficiency virus 1, MT4, 120 h
[14] = Selectivity index, ratio of CC50 for cytotoxicity against human MT4 cells assessed as reduction in cell viability to EC50 for antiviral activity against HIV-1 IIIB infected in human MT4 cells assessed as reduction in virus induced cytopathic effect; assay type: toxicity, cell-based; settings: read-out: Ratio CC50/EC50
[15] = test system: Human immunodeficiency virus 1; assay: Antiviral activity against NNRTI-resistant HIV-1 harboring F227L/V106A double mutant infected in human MT4 cells assessed as virus-induced cytopathicity incubated for 5 days by MTT assay; assay type: functional, organism-based; settings: Human immunodeficiency virus 1, MT4, 120 h
[16] = as §1, with “E138K” for “Y181C”; assay type: functional
[17] = as §1, with “F227L/V106A double” for “Y181C”, “RES056” for “IIIB”; assay type: functional
[18] = as §1, with “F227L/V106A double” for “Y181C”; assay type: functional
[19] = test system: Human immunodeficiency virus 1; assay: Antiviral activity against HIV-1 IIIB infected in human MT4 cells assessed as reduction in virus induced cytopathic effect incubated for 5 days by MTT assay; assay type: functional, organism-based; settings: Human immunodeficiency virus 1, IIIB, MT4, 120 h
[20] = Cytotoxicity against human MT4 cells assessed as cell growth inhibition incubated for 5 days by MTT assay; assay type: toxicity, cell-based; settings: time 5 day
[21] = as §1, with “K103N” for “Y181C”; assay type: functional
[22] = Selectivity index, ratio of CC50 for cytotoxicity against human MT4 cells assessed as reduction in cell viability to EC50 for antiviral activity against HIV-1 RES056 infected in human MT4 cells assessed as reduction in virus induced cytopathic effect; assay type: toxicity, cell-based; settings: read-out: Ratio CC50/EC50
[23] = test system: Human immunodeficiency virus 1; assay: Antiviral activity against NNRTI-resistant HIV-1 harboring L100I mutant infected in human MT4 cells assessed as virus-induced cytopathicity incubated for 5 days by MTT assay; assay type: functional, organism-based; settings: Human immunodeficiency virus 1, MT4, 120 h
[24] = Selectivity index, ratio of CC50 for cytotoxicity against human MT4 cells assessed as reduction in cell viability to EC50 for antiviral activity against NNRTI-resistant HIV-1 harboring F227L/V106A double mutant infected in human MT4 cells; assay type: toxicity, cell-based; settings: read-out: Ratio CC50/EC50
[25] = Selectivity index, ratio of CC50 for cytotoxicity against human MT4 cells assessed as reduction in cell viability to EC50 for antiviral activity against NNRTI-resistant HIV-1 harboring L100I mutant infected in human MT4 cells; assay type: toxicity, cell-based; settings: read-out: Ratio CC50/EC50

Row | Structure (SMILES) | EC50 [1] | selectivity ratio [2] | EC50 [3] | IC50 [4] | selectivity ratio [5] | EC50 [6] | Ratio EC50 [7] | Ratio EC50 [8] | selectivity ratio [9] | EC50 [10] | selectivity ratio [11] | Ratio EC50 [12] | EC50 [13] | selectivity ratio [14] | EC50 [15] | Ratio EC50 [16] | Ratio EC50 [17] | Ratio EC50 [18] | EC50 [19] | CC50 at 120 h [20] | further results
1 | Cc1cc(C#N)cc(C)c1Oc1nc(NC2CCN(c3ccc(NS(N)(=O)=O)cc3)CC2)ncc1C(N)=O | 120 nM | 997 | 118 nM | 941 nM | 1480 | 176 nM | 5.4 | 3.6 | 4730 | 152000 nM | 1470 | 11.3 | 37 nM | 5370 | 584 nM | 3.7 | 4648.8 | 17.9 | 33 nM | 176000 nM | Ratio EC50 [21]: 1.1; selectivity ratio [22]: 1; EC50 [23]: 370 nM; selectivity ratio [24]: 301; selectivity ratio [25]: 474
2 | Cc1cc(C#N)cc(C)c1Oc1nc(NC2CCN(c3ccc(NS(=O)(=O)N(C)C)cc3)CC2)ncc1C(N)=O | 26 nM | 3910 | 33 nM | 52 nM | 6350 | 54 nM | 8.1 | 5 | 18700 | 15600 nM | 8010 | 21.1 | 11 nM | 31700 | 34 nM | 3.9 | 2359.1 | 5.1 | 7 nM | 209000 nM | Ratio EC50 [21]: 1.7; selectivity ratio [22]: 13; EC50 [23]: 139 nM; selectivity ratio [24]: 6160; selectivity ratio [25]: 1500
3 | Cc1cc(C#N)cc(C)c1Oc1nc(NC2CCN(c3ccc(NS(=O)(=O)C4CC4)cc3)CC2)ncc1C(N)=O | 734 nM | 4570 | 35 nM | 38 nM | 6000 | 45 nM | 6 | 4.5 | 23400 | 42 nM | 283 | 8.5 | 9 nM | 27200 | 34 nM | 96.2 | 5.5 | 4.5 | 8 nM | 208000 nM | Ratio EC50 [21]: 1.2; selectivity ratio [22]: 4920; EC50 [23]: 65 nM; selectivity ratio [24]: 6070; selectivity ratio [25]: 3190
4 | Cc1cc(C#N)cc(C)c1Oc1nc(NC2CCN(c3ccc(NS(C)(=O)=O)cc3)CC2)ncc1C(N)=O | 226 nM | > 901 | 24 nM | 200 nM | > 9940 | 259 nM | 13.4 | 1.2 | > 1510 | 33200 nM | > 1040 | 12.7 | 154 nM | > 12100 | 781 nM | 11.6 | 1716.7 | 40.3 | 19 nM | > 233000 nM | Ratio EC50 [21]: 8; selectivity ratio [22]: > 7; EC50 [23]: 247 nM; selectivity ratio [24]: > 299; selectivity ratio [25]: > 946
